Test [1] addresses T1, IRAK4 protein in THP-1 cells (Homo sapiens, UniProt Q9NWZ3).
T1 construct: endogenous in cells; host or cells: THP-1
T1 sequence (Q9NWZ3 1-460): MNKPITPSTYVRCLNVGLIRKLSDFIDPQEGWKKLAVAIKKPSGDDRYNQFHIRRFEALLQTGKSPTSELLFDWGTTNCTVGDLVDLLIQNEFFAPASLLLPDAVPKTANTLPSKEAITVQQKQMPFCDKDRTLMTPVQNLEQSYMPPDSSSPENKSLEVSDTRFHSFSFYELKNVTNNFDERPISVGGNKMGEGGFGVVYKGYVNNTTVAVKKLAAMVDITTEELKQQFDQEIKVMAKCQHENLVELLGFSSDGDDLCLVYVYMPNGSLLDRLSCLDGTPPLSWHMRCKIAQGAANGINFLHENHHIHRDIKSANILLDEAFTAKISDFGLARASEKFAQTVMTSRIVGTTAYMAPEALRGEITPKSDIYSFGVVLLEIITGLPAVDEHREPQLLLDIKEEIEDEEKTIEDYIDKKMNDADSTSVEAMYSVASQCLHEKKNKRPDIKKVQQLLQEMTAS
In words: Degradation of IRAK4 in THP-1 cells (Western blot). The following applies: 24 hours, compound 1-3000 nM. It is filed as cell-based. The procedure: Each well of the 24-well cell culture plate was inoculated with 0.95 mL THP-1 cells (stem cell bank of Chinese academy of sciences) with a cell density of 5×10^5 cells/well. The cell plate was placed in a 5% carbon dioxide incubator and cultured overnight at 37° C., then 50 μL compound in dimethyl sulfoxide was added. The final concentration of the compound was in the range of 1-3000 nM. After continuous cultivation for 24 hours, the cells were collected into a 1.5 mL centrifuge tube, centrifuged at 1000 rpm and 4° C. for 5 minutes. Cell precipitation was cleaned twice with 1-DPBS, resuspended cells were lysed with 200 μL lysate (cell lysate was Western and IP cell lysate (Beyotime), supplemented with 1 mM mixture of phenylmethylsulfonyl fluoride and protease inhibitor (Beyotime)), left on ice for 30 minutes, then centrifuged at 14000 g at 4° C. for 10 minutes, and the supernatant was taken to detect IRAK4 protein level by Western blot.
Western blot method: The total protein concentration in the supernatant of cell lysis was determined by BCA protein quantitative kit (Tiangen). According to the concentration of total protein detected by BCA, the supernatant was adjusted to 0.2 μg/μL with PBS and 5× SDS-PAGE protein loading buffer (Beyotime), bathed in water at 100° C. for 10 minutes, then placed in ice bath for 5 minutes, centrifuged at 14000 g and 4° C. for 5 minutes, and then collected as WB loading sample. Prefabricated glue (KeyGEN) was used for protein electrophoresis with a loading amount of 10 μL (total protein 2 μg). After Tris-MOPS-SDS electrophoresis solution (Adamas), 120V constant pressure electrophoresis was performed. After electrophoresis, the protein on the adhesive strip was transferred to PVDF membrane with a constant current of […] for 50 minutes. After the membrane was transferred, the membrane was placed in 1×QuickBlock blocking buffer (Beyotime) and incubated for 30 minutes at room temperature. After blocking, PVDF membranes were incubated with IRAK4 primary antibody (Abcam) overnight at 4°, the membranes were washed with TBST buffer (2.4 g Tris, 8.8 g NaCl, 1.5 mL Tween 20, pH adjusted to 7.4, constant volume to 1 L) for 30 minutes, incubated with secondary antibody (Abcam) for 2 hours at room temperature, finally incubated with Clarity Western ECL Substrate(BIO-RAD) for 5 minutes for luminescence development, chemiluminescence imaging system (Clinx, chemiScope 6200 Touch) for development and protein mapping photography. The protein map was analyzed by Clinx chemiluminescence analysis software for grayscale values. Using the formula: grayscale correction value=(target protein grayscale value/corresponding internal reference grayscale value)×10^3, the grayscale correction value of each sample was calculated. The degradation rate was calculated by comparing with the grayscale correction value of the control group. Furthermore, DC50 and Dmax values of the compound were obtained by the nonlinear curve fitting with the logarithmic concentration-inhibition rate by GraphPad Prism 7.

The next test deals with T2, IRAK4 kinase (Homo sapiens, UniProt Q9NWZ3).
T2 sequence (Q9NWZ3 1-460): T1 sequence (Q9NWZ3 1-460)
In words: IRAK4 kinase activity test (KinEASE-STK S1 HTRF kit). It is filed as biochemical. The following applies: 2.5 nM kinase, 1 μM biotinylated polypeptide substrate, 7 μM ATP, 37° C. 120 min. The procedure:
KinEASE-STK S1 serine/threonine kinase kit (Cisbio) was used to detect the inhibitory effect of the compound on IRAK4 kinase activity. The specific method was: the compound was dissolved in dimethyl sulfoxide, and then it was diluted with the buffer solution of the kit by equal gradient to make the final concentration range of the tested compound in the reaction system 10000 nM-0.038 nM, then 2.5 nM kinase, 1 μM biotinylated polypeptide substrate and 7 μM adenosine triphosphate (ATP) were added in sequence and incubated at 37° C. for 120 min. Subsequently, anti-phosphorylated serine/threonine antibody coupled with europium element compound and modified XL665 streptavidin were added to the reaction system to terminate the reaction. After incubating at room temperature for 1 h, the fluorescence intensity of each well at the emission wavelength of 620 nm and 665 nm and the excitation wavelength of 337 nm was determined in HTRF mode on the microplate reader EnVision(PerkinElmer), the ratio value was calculated using the formula Ratio=(665 nm/620 nm)×10^4. By comparing with the fluorescence intensity ratio of the control group, the inhibition rate of the compound at each concentration was calculated, and then the IC50 value of the compound was obtained by fitting the nonlinear curve with the logarithmic concentration-inhibition rate by GraphPad Prism 7.
On the technique in general: TR-FRET usually uses a lanthanide donor and a delayed reading to cut background.

By DC50 is commonly meant the concentration at which degradation of the target reaches its halfway point. Low readings indicate a more potent degrader, high ones a less potent degrader. The Dmax is the greatest extent of degradation seen. Read a high Dmax as deep degradation. The term IC50 denotes the midpoint of a concentration-inhibition curve. A higher IC50 goes with a need for much substance.

In test [1], `COc1cc2nn(C3CCN(CCCN4CCC5(CC4)CCN(C(=O)c4ccc(OC)c(N6CCC(=O)NC6=O)c4)CC5)CC3)cc2cc1NC(=O)c1cccc(C(F)(F)F)n1` [Example 2, N-(2-(1-(3-(9-(3-(2,4-dioxotetrahydropyrimi-din-1 (2H)-yl)-4-methoxyben-zoyl)-3,9-diazaspiro [5.5]undec-3-yl)propyl)piperidin-4-yl)-6-methoxy-2H-indazol-5-yl)-6-(tri-fluoromethyl)-2-pyridine carboxamide] gave a DC50 of 7.4 nM and a Dmax of 99.1%. On IRAK4 kinase, this compound registered an IC50 of 2.9 nM.
With `COc1cc2nn(C3CCN(CCCCN4CCC5(CC4)CCN(C(=O)c4ccc(OC)c(N6CCC(=O)NC6=O)c4)CC5)CC3)cc2cc1NC(=O)c1cccc(C(F)(F)F)n1` [Example 3], in test [1], the DC50 was 23.1 nM and the Dmax stood at 90.5%. Besides, the IC50 against IRAK4 kinase worked out at 2.7 nM.
On the same counts, the results for `COc1cc2nn(C3CCN(CCC4CCN(C(=O)c5ccc(OC)c(N6CCC(=O)NC6=O)c5)CC4)CC3)cc2cc1NC(=O)c1cccc(C(F)(F)F)n1` [Example 6, N-(2-(1-(2-(1-(3-(2,4-dioxotetrahydropyrim-idin-1 (2H)-yl)-4-methoxyben-zoyl)piperidin-4-yl)ethyl)piperidin-4-yl)-6-me-thoxy-2H-indazol-5-yl)-6-(trifluoromethyl) pyridinecarboxamide] are 24 nM, 91.7% and 7.6 nM.
In the case of `COc1ccc(C(=O)N2CCC(CCN3CCC(n4cc5cc(NC(=O)c6cccc(C(F)(F)F)n6)c(C(C)(C)O)cc5n4)CC3)CC2)cc1N1CCC(=O)NC1=O` [Example 7, N-(2-(1-(2-(1-(3-(2,4-dioxotetrahydropyrimidin-1 (2H)-yl)-4-methoxybenzoyl)piperidin-4-yl)ethyl)piperidin-4-yl)-6-(2-hydroxyprop-2-yl)-2H-indazol-5-yl)-6-(trifluoromethyl) pyridinecarboxamide], in test [1], half-maximal degradation (DC50) was put at 9.4 nM and the Dmax came out at 95.5%. The compound further showed an IC50 against IRAK4 kinase of 5.9 nM.
For `COc1cc2nn(C3CCN(CCCCCN(C)C(=O)c4ccc(OC)c(N5CCC(=O)NC5=O)c4)CC3)cc2cc1NC(=O)c1cccc(C(F)(F)F)n1` [Example 9, N-(2-(1-(5-(3-(2,4-dioxotetrahydropyrimidin-1 (2H)-yl)-4-methoxy-N-methylbenzamido)pentyl)piperidin-4-yl)-6-methoxy-2H-indazol-5-yl)-6-(trifluoromethyl) pyridinecarboxamide], in that order: 16.4 nM, 94.3% and 18 nM.
Turning to `COc1ccc(C(=O)N2CCC3(CCN(CCN4CCC(n5cc6cc(NC(=O)c7cccc(C(F)(F)F)n7)c(C(C)(C)O)cc6n5)CC4)CC3)CC2)cc1N1CCC(=O)NC1=O` [Example 10, N-(2-(1-(2-(9-(3-(2,4-dioxotetrahydropyrimidin-1 (2H)-yl)-4-methoxybenzoyl)-3,9-diazaspiro[5.5]undec-3-yl)ethyl)piperidin-4-yl)-6-(2-hydroxyprop-2-yl)-2H-indazol-5-yl)-6-(trifluoromethyl) pyridinecarboxamide], in test [1], the DC50 worked out at 2.3 nM and the greatest degradation seen (Dmax) stood at 100%. On IRAK4 kinase, this compound gave an IC50 of 6.5 nM.
In test [1], `COc1ccc(C(=O)N2CCC3(CCN(CCCN4CCC(n5cc6cc(NC(=O)c7cccc(C(F)(F)F)n7)c(C(C)(C)O)cc6n5)CC4)CC3)CC2)cc1N1CCC(=O)NC1=O` [Example 11] registered a DC50 of 27.7 nM and a Dmax of 99.6%. The IC50 on IRAK4 kinase was 6 nM.
For `COc1ccc(C(=O)N2CCC3(CC2)CN(CCN2CCC(n4cc5cc(NC(=O)c6cccc(C(F)(F)F)n6)c(C(C)(C)O)cc5n4)CC2)C3)cc1N1CCC(=O)NC1=O` [Example 12, N-(2-(1-(2-(7-(3-(2,4-dioxotetrahydropyrimidin-1 (2H)-yl)-4-methoxybenzoyl)-2,7-diazaspiro [3.5]non-2-yl)ethyl)piperidin-4-yl)-6-(2-hydroxyprop-2-yl)-2H-indazol-5-yl)-6-(trifluoro-methyl) pyridinecarboxamide], in that order: 1.4 nM, 96.9% and 7.9 nM.
For `COc1cc2nn(C3CCN(CCN4CCC5(CC4)CCN(C(=O)c4ccc(Cl)c(N6CCC(=O)NC6=O)c4)CC5)CC3)cc2cc1NC(=O)c1cccc(C(F)(F)F)n1` [Example 16, N-(2-(1-(2-(9-(4-chloro-3-(2,4-dioxotetrahydro-pyrimidin-1 (2H)-yl)benzoyl)-3,9-diazaspiro[5.5]undec-3-yl)ethyl)piperidin-4-yl)-6-methoxy-2H-in-dazol-5-yl)-6-(tri-fluoromethyl) pyridinecarbox-amide], in that order: 7.1 nM, 99.4% and 9.2 nM.
As for `CC(C)(O)c1cc2nn(C3CCN(CCN4CCC5(CC4)CCN(C(=O)c4ccc(Cl)c(N6CCC(=O)NC6=O)c4)CC5)CC3)cc2cc1NC(=O)c1cccc(C(F)(F)F)n1` [Example 17, N-(2-(1-(2-(9-(4-chloro-3-(2,4-dioxotetrahydro-pyrimidin-1 (2H)-yl)benzoyl)-3,9-diazaspiro[5.5]undec-3-yl)ethyl)piperidin-4-yl)-6-(2-hydroxyprop-2-yl)-2H-indazol-5-yl)-6-(trifluoro-methyl) pyridinecarbox-amide], in test [1], the DC50 is 5.3 nM and the Dmax worked out at 96.9%. Besides, half-maximal inhibition at IRAK4 kinase (IC50) required 7.9 nM.
On the same counts, the results for `COc1cc2nn(C3CCN(CCCC4CCN(C(=O)c5ccc(OC)c(N6CCC(=O)NC6=O)c5)CC4)CC3)cc2cc1NC(=O)c1cccc(C(F)(F)F)n1` [Example 18, N-(2-(1-(3-(1-(3-(2,4-dioxotetrahydro-pyrimidin-1 (2H)-yl)-4-me-thoxybenzoyl)piperidin-4-yl)propyl)piperidin-4-yl)-6-methoxy-2H-in-dazol-5-yl)-6-(trifluorometh-yl) pyridinecarbox-amide] are 7.1 nM, 99.4% and 9.6 nM.
For `COc1cc2nn(C3CCN(CCCN4CCN(C(=O)c5ccc(OC)c(N6CCC(=O)NC6=O)c5)CC4)CC3)cc2cc1NC(=O)c1cccc(C(F)(F)F)n1` [Example 19, N-(2-(1-(3-(4-(3-(2,4-dioxotetrahydro-pyrimidin-1 (2H)-yl)-4-me-thoxybenzoyl)piperazin-1-yl)propyl)piperidin-4-yl)-6-methoxy-2H-in-dazol-5-yl)-6-(trifluorometh-yl) pyridinecarbox-amide], in that order: 13.4 nM, 92.8% and 16.9 nM.
Turning to `COc1cc2nn(C3CCN(CCOC4CCN(C(=O)c5ccc(OC)c(N6CCC(=O)NC6=O)c5)CC4)CC3)cc2cc1NC(=O)c1cccc(C(F)(F)F)n1` [Example 20], in test [1], the DC50 is 12.2 nM and the Dmax is 93.7%. This compound also displayed an IC50 on IRAK4 kinase of 9.5 nM.

For the origin of these results see patent publication US20230234936A1, “COMPOUND FOR TARGETING AND DEGRADING PROTEIN, AND PREPARATION METHOD THEREFOR AND USE THEREOF” (SHANGHAI LEADINGTAC PHARMACEUTICAL CO., LTD., priority 2020, published 2023).
